From US8277810B2, “Antagonist anti-CD40 antibodies” (Novartis Vaccines & Diagnostics, Inc., priority 2003, dated 2012)

Key:
IM-9 tumor cells [1] = assay: IM-9 multiple myeloma xenograft, unstaged conditional survival model; parameters: species or system SCID mice; conditions: mouse, in vivo
Procedure: (§1) SCID mice were inoculated subcutaneously with IM-9 tumor cells (a human multiple myeloma cell line expressing both CD40 and CD20) in 50% […]™ at 5×10^6 cells per mouse. In unstaged models, treatment was initiated one day after tumor implantation. In staged models, treatment was initiated when tumor volume reached 150-200 mm^3. Tumor-bearing mice were injected with anti-CD40 mAb intraperitoneally once a week at the indicated doses. Data were analyzed using the log-rank test.

IM-9 tumor cells [2] = assay: IM-9 multiple myeloma xenograft, staged subcutaneous model; assay type: in vivo, SCID mice
Procedure: as §1, with “Tumor-bearing mice were injected with anti-CD40 mAb intraperitoneally once a week at the indicated doses.” left out

Namalwa tumors = assay: Staged human NHL Namalwa xenograft model; assay type: in vivo, T cell-deficient nude mice; conditions: CHIR-12.12 1 mg/kg ip once a week for 4 weeks; IL-2 0.5 mg/kg sc daily for 8 days; N=10 mice/group
Description: Therefore, the component of these mAbs' anti-tumor activity based on blocking the tumor proliferation/survival signal is not expected to contribute to anti-tumore efficacy in these models.
To ensure consistent tumor growth, T cell-deficient nude mice were whole-body irradiated at 3 Gy to further suppress the immune system one day before tumor inoculation. Tumor cells were inoculated subcutaneously in the right flank at 5×10^6 cells per mouse. Treatment was initiated when tumor volume reached about 100-200 mm^3 (about 7 days after tumor inoculation). […] Tumor volumes were recorded twice a week. Data were analyzed using ANOVA.

Molecule	outcome of treated group (IM-9 tumor cells [1])	tumor growth inhibition (IM-9 tumor cells [2]; 0.5 mg/kg twice a week)	tumor growth inhibition (IM-9 tumor cells [2]; MTD 1 mg/kg twice a week)	growth of Namalwa tumors, single agent (Namalwa tumors)
CC(C)C[C@H](NC(=O)[C@H](Cc1ccccc1)NC(=O)c1cnccn1)B(O)O [bortezomib]	euthanized between day 18 and day 26	did not inhibit tumor growth	30%	–
IL-2: IL-2 used in the xenograft example; b966 says des-alanyl-1, serine-125 human IL-2 is used in the examples	–	–	–	inhibited the growth of Namalwa tumors
